The test system of the test is library of 8,380 IKZF3 degrons (ZF-eGFP/mCherry reporter) in Jurkat cells. Kind of test: Pooled library screen (FACS, NGS, limma voom LogFC of positive vs negative read counts). It is filed as cell-based, human. The essentials:
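Cells were lentivirally transduced at MOI <0.3, and mCherry+ cells were sorted 6 days later. Eight days after sorting, cells were treated with DMSO or thalidomide analog for 18 h at 37 °C. mCherry+GFPlow (DMSO-set gate, DAPI-excluded) and remaining cells were sorted, and degrons were PCR-amplified from gDNA and sequenced (>600× coverage, 3 biological replicates).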

On to `CC(C)(C)c1ccc2c(c1)C(=O)N(C1CCC(=O)NC1=O)C2=O` (stereo not shown) [A63, 5-(tert-butyl)-2-(2,6-dioxopiperidin-3-yl)isoindoline-1,3-dione], for which the “position of the WT sequence in the volcano plot of the library screen” value (WT ZF sequence) was “far away from the ‘hits’ region”. Also, the “A63_logFC (Estimated LogFC Coefficient, positive vs negative read counts)” value by setting is: (mutant degron: Degron-ID 214, SEQ ID NO 1763, 46F_47A_49P_50Q_52G_53A_54R_55F_67L) 2.012; (mutant degron: Degron-ID 1093, SEQ ID NO 1762, 46F 47F_49N_50I_52G_53A 54Q 55F 67L) 2.015; (mutant degron: Degron-ID 1448, SEQ ID NO 1767, 46F_47H_49D_50I_52G_53A_54K_55F_67L) 2.005; (mutant degron: Degron-ID 1792, SEQ ID NO 1752, 46F 47I 49E_50V_52G_53A 54P 55F 67L) 2.03; (mutant degron: Degron-ID 2032, SEQ ID NO 1761, 46F_47K_49E_50V_52G_53A_54P 55F 67L) 2.016; (mutant degron: Degron-ID 2220, SEQ ID NO 1759, 46F_47L_49E_50I_52G_53A_54A_55F_67L) 2.022. The “A63_logFC (Estimated LogFC Coefficient, positive vs negative read counts)” value runs as follows: (mutant degron: Degron-ID 2352, SEQ ID NO 1758, 46F_47L_49P_50I_52G_53A 54P 55F_67L) 2.022; (mutant degron: Degron-ID 2873, SEQ ID NO 1765, 46F_47N_49P_50V_52G_53A_54Q_55F_67L) 2.01; (mutant degron: Degron-ID 2874, SEQ ID NO 1756, 46F_47N_49P_50V_52G_53A_54R_55F_67L) 2.023; (mutant degron: Degron-ID 3479, SEQ ID NO 1750, 46F_47S_49E_50V_52G_53A_54Y_55F_67L) 2.034; (mutant degron: Degron-ID 3732, SEQ ID NO 1751, 46F 47T 49N 50I 52G 53A 54P 55F 67L) 2.034; (mutant degron: Degron-ID 4130, SEQ ID NO 1769, 46F_47W_49D_50V_52G_53A_54M_55F_67L) 2.004. In addition, the “A63_logFC (Estimated LogFC Coefficient, positive vs negative read counts)” value was 2.029 (mutant degron: Degron-ID 4210, SEQ ID NO 1753, 46F_47W_49N_50I_52G_53A_54M_55F 67L); 2.023 (mutant degron: Degron-ID 4213, SEQ ID NO 1757, 46F_47W_49N_50I_52G_53A_54Q_55F_67L); 2.011 (mutant degron: Degron-ID 6432, SEQ ID NO 1764, 46F_47W_49P_50I_52G_53R_54P_55F_67L); 2.023 (mutant degron: Degron-ID 6552, SEQ ID NO 1755, 46L 47F_49P_50I_52G_53F_54P 55C 67L); 2.028 (mutant degron: Degron-ID 6583, SEQ ID NO 1754, 46L_47H_49P_50I_52G_53F_54E_55C_67L); 2.006 (mutant degron: Degron-ID 7601, SEQ ID NO 1760, 46L_47A_49E_50I_52G_53F_54C_55C_67L). Besides, the “A63_logFC (Estimated LogFC Coefficient, positive vs negative read counts)” value is reported as 2.001 (mutant degron: Degron-ID 7628, SEQ ID NO 1770, 46L_47C_49E_50I_52G_53F_54K_55C_67L); 2.019 (mutant degron: Degron-ID 7865, SEQ ID NO 1760, 46L 47R_49E_50I_52G_53F_54G_55C_67L); 2.005 (mutant degron: Degron-ID 7971, SEQ ID NO 1768, 46L_47Y_49E_50I_52G_53F_54N_55C_67L).

(Values after patent US20260284208A1, “SYSTEM” (Oxford University Innovation Limited, priority 2023, published 2026).)
